Assays:
Assay in all cases: NCI-60 single-dose screen
SNB-75 = type: cell-based; details: Homo sapiens; SNB-75, 10^–5 M; read-out: GI (%)
How it was run: (§1)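 Values come from a one-concentration NCI screen in which compounds at 10^−5 M were tested on sixty human tumor cell lines.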

SK-MEL-5 = type: cell-based; details: Homo sapiens; SK-MEL-5, 10^–5 M; read-out: GI (%)
How it was run: as §1

OVCAR-8 = type: cell-based; details: Homo sapiens; OVCAR-8, 10^–5 M; read-out: GI (%)
How it was run: as §1

MDA-MB-435 = type: cell-based; details: Homo sapiens; MDA-MB-435, 10^–5 M; read-out: GI (%)
How it was run: as §1

SR = type: cell-based; details: Homo sapiens, 10^–5 M, read-out: GI (%)
How it was run: as §1

SN12C = type: cell-based; details: Homo sapiens, 10^–5 M, read-out: GI (%)
How it was run: as §1

MCF7 = type: cell-based; details: Homo sapiens; MCF7, 10^–5 M; read-out: GI (%)
How it was run: as §1

K-562 = type: cell-based; details: Homo sapiens, K562; K-562, 10^–5 M; read-out: GI (%)
How it was run: as §1

HT-29 = type: cell-based; details: Homo sapiens; HT-29, 10^–5 M; read-out: GI (%)
How it was run: as §1

SF-539 = type: cell-based; details: Homo sapiens; SF-539, 10^–5 M; read-out: GI (%)
How it was run: as §1

NCI-H460 = type: cell-based; details: Homo sapiens; NCI-H460, 10^–5 M; read-out: GI (%)
How it was run: as §1

M14 = type: cell-based; details: Homo sapiens; M14, 10^–5 M; read-out: GI (%)
How it was run: as §1

NCI-H522 = type: cell-based; details: Homo sapiens; NCI-H522, 10^–5 M; read-out: GI (%)
How it was run: as §1

HS 578T = type: cell-based; details: Homo sapiens, 10^–5 M, read-out: GI (%)
How it was run: as §1

HCT-15 = type: cell-based; details: Homo sapiens; HCT-15, 10^–5 M; read-out: GI (%)
How it was run: as §1

UO-31 = type: cell-based, human; details: UO-31, 10^–5 M
How it was run: as §1

MDA-MB-468 = type: cell-based, human; details: MDA-MB-468, 10^–5 M
How it was run: as §1

HOP-62 = type: cell-based, human; details: HOP-62, 10^–5 M
How it was run: as §1

SF-295 = type: cell-based, human; details: SF-295, 10^–5 M
How it was run: as §1

BT-549 = type: cell-based, human; details: BT-549, 10^–5 M
How it was run: as §1

U251 = type: cell-based, human; details: U251, 10^–5 M
How it was run: as §1

Compound: O=C1C(Nc2ccc(I)cc2)=CC(c2ccc(F)cc2)N1c1ccc(I)cc1 (stereo not drawn) [3b]
- inhibition at 10 µM (SNB-75): 100%
- inhibition at 10 µM (SK-MEL-5): 5%
- inhibition at 10 µM (OVCAR-8): 8%
- inhibition at 10 µM (MDA-MB-435): 0%
- inhibition at 10 µM (SR): 92%
- inhibition at 10 µM (SN12C): 28%
- inhibition at 10 µM (MCF7): 56%
- inhibition at 10 µM (K-562): 5%
- inhibition at 10 µM (HT-29): 16%
- inhibition at 10 µM (SF-539): 51%
- inhibition at 10 µM (NCI-H460): 17%
- inhibition at 10 µM (M14): 4%
- inhibition at 10 µM (NCI-H522): 26%
- inhibition at 10 µM (HS 578T): 90%
- inhibition at 10 µM (HCT-15): 9%

Compound: O=C1C(Nc2ccc(I)cc2)=CC(c2ccc(Cl)cc2)N1c1ccc(I)cc1 (stereo not drawn) [3c]
- inhibition at 10 µM (SNB-75): 12%
- inhibition at 10 µM (SK-MEL-5): 18%
- inhibition at 10 µM (OVCAR-8): 11%
- inhibition at 10 µM (MDA-MB-435): 0%
- inhibition at 10 µM (SR): 41%
- inhibition at 10 µM (SN12C): 25%
- inhibition at 10 µM (MCF7): 47%
- inhibition at 10 µM (K-562): 10%
- inhibition at 10 µM (HT-29): 19%
- inhibition at 10 µM (SF-539): 11%
- inhibition at 10 µM (NCI-H460): 7%
- inhibition at 10 µM (M14): 0%
- inhibition at 10 µM (NCI-H522): 24%
- inhibition at 10 µM (HS 578T): 55%
- inhibition at 10 µM (HCT-15): 13%

Compound: COc1ccccc1C1C=C(Nc2ccc(I)cc2)C(=O)N1c1ccc(I)cc1 (stereo not drawn) [3i]
- inhibition at 10 µM (SNB-75): 37%
- inhibition at 10 µM (SK-MEL-5): 4%
- inhibition at 10 µM (OVCAR-8): 17%
- inhibition at 10 µM (MDA-MB-435): 0%
- inhibition at 10 µM (SR): 23%
- inhibition at 10 µM (SN12C): 20%
- inhibition at 10 µM (MCF7): 50%
- inhibition at 10 µM (K-562): 9%
- inhibition at 10 µM (HT-29): 5%
- inhibition at 10 µM (SF-539): 31%
- inhibition at 10 µM (NCI-H460): 9%
- inhibition at 10 µM (M14): 10%
- inhibition at 10 µM (NCI-H522): 37%
- inhibition at 10 µM (HS 578T): 84%
- inhibition at 10 µM (HCT-15): 13%
- GI (%) (UO-31): 27%
- GI (%) (MDA-MB-468): 43%
- GI (%) (HOP-62): 0%
- GI (%) (SF-295): 28%
- GI (%) (BT-549): 2%
- GI (%) (U251): 0%

Compound: O=C1C(Nc2ccc(I)cc2)=CC(c2cc(C(F)(F)F)cc(C(F)(F)F)c2)N1c1ccc(I)cc1 (stereo not drawn) [3f]
- inhibition at 10 µM (SNB-75): 100%
- inhibition at 10 µM (SK-MEL-5): 12%
- inhibition at 10 µM (OVCAR-8): 26%
- inhibition at 10 µM (MDA-MB-435): 0%
- inhibition at 10 µM (SR): 47%
- inhibition at 10 µM (SN12C): 61%
- inhibition at 10 µM (MCF7): 46%
- inhibition at 10 µM (K-562): 26%
- inhibition at 10 µM (HT-29): 5%
- inhibition at 10 µM (SF-539): 17%
- inhibition at 10 µM (NCI-H460): 35%
- inhibition at 10 µM (M14): 0%
- inhibition at 10 µM (NCI-H522): 34%
- inhibition at 10 µM (HS 578T): 100%
- inhibition at 10 µM (HCT-15): 17%

Compound: COc1ccc(C2C=C(Nc3ccc(I)cc3)C(=O)N2c2ccc(I)cc2)cc1OC (stereo not drawn) [3j]
- inhibition at 10 µM (SNB-75): 0%
- inhibition at 10 µM (SK-MEL-5): 11%
- inhibition at 10 µM (OVCAR-8): 0%
- inhibition at 10 µM (MDA-MB-435): 0%
- inhibition at 10 µM (SR): 0%
- inhibition at 10 µM (SN12C): 0%
- inhibition at 10 µM (MCF7): 6%
- inhibition at 10 µM (K-562): 0%
- inhibition at 10 µM (HT-29): 0%
- inhibition at 10 µM (SF-539): 28%
- inhibition at 10 µM (NCI-H460): 0%
- inhibition at 10 µM (M14): 0%
- inhibition at 10 µM (NCI-H522): 0%
- inhibition at 10 µM (HS 578T): 0%
- inhibition at 10 µM (HCT-15): 0%
- GI (%) (UO-31): 0%
- GI (%) (MDA-MB-468): 22%
- GI (%) (HOP-62): 0%
- GI (%) (SF-295): 0%
- GI (%) (BT-549): 0%
- GI (%) (U251): 0%

Compound: O=C1C(Nc2ccc(I)cc2)=CC(c2ccc3c(c2)OCO3)N1c1ccc(I)cc1 (stereo not drawn) [3n]
- inhibition at 10 µM (SNB-75): 20%
- inhibition at 10 µM (SK-MEL-5): 1%
- inhibition at 10 µM (OVCAR-8): 0%
- inhibition at 10 µM (MDA-MB-435): 0%
- inhibition at 10 µM (SR): 27%
- inhibition at 10 µM (SN12C): 16%
- inhibition at 10 µM (MCF7): 30%
- inhibition at 10 µM (K-562): 6%
- inhibition at 10 µM (HT-29): 5%
- inhibition at 10 µM (SF-539): 87%
- inhibition at 10 µM (NCI-H460): 3%
- inhibition at 10 µM (M14): 5%
- inhibition at 10 µM (NCI-H522): 26%
- inhibition at 10 µM (HS 578T): 25%
- inhibition at 10 µM (HCT-15): 9%
- GI (%) (UO-31): 6%
- GI (%) (MDA-MB-468): 83%
- GI (%) (HOP-62): 0%
- GI (%) (SF-295): 9%
- GI (%) (BT-549): 3%
- GI (%) (U251): 0%

Compound: O=C1C(Nc2ccc(I)cc2)=CC(c2ccc(Br)cc2)N1c1ccc(I)cc1 (stereo not drawn) [3d]
- inhibition at 10 µM (SNB-75): 3%
- inhibition at 10 µM (SK-MEL-5): 20%
- inhibition at 10 µM (OVCAR-8): 0%
- inhibition at 10 µM (MDA-MB-435): 0%
- inhibition at 10 µM (SR): 0%
- inhibition at 10 µM (SN12C): 15%
- inhibition at 10 µM (MCF7): 60%
- inhibition at 10 µM (K-562): 15%
- inhibition at 10 µM (HT-29): 14%
- inhibition at 10 µM (SF-539): 0%
- inhibition at 10 µM (NCI-H460): 0%
- inhibition at 10 µM (M14): 0%
- inhibition at 10 µM (NCI-H522): 2%
- inhibition at 10 µM (HS 578T): 41%
- inhibition at 10 µM (HCT-15): 13%

Compound: O=C1C(Nc2ccc(I)cc2)=CC(c2ccco2)N1c1ccc(I)cc1 (stereo not drawn) [3m]
- inhibition at 10 µM (SNB-75): 9%
- inhibition at 10 µM (SK-MEL-5): 17%
- inhibition at 10 µM (OVCAR-8): 11%
- inhibition at 10 µM (MDA-MB-435): 84%
- inhibition at 10 µM (SR): 76%
- inhibition at 10 µM (SN12C): 27%
- inhibition at 10 µM (MCF7): 93%
- inhibition at 10 µM (K-562): 14%
- inhibition at 10 µM (HT-29): 6%
- inhibition at 10 µM (SF-539): 63%
- inhibition at 10 µM (NCI-H460): 0%
- inhibition at 10 µM (M14): 4%
- inhibition at 10 µM (NCI-H522): 31%
- inhibition at 10 µM (HS 578T): 39%
- inhibition at 10 µM (HCT-15): 16%
- GI (%) (UO-31): 17%
- GI (%) (MDA-MB-468): 100 ^q1%
- GI (%) (HOP-62): 50%
- GI (%) (SF-295): 63%
- GI (%) (BT-549): 17%
- GI (%) (U251): 0%

Compound: O=C1C(Nc2ccc(I)cc2)=CC(c2ccccc2)N1c1ccc(I)cc1 (stereo not drawn) [3a]
- inhibition at 10 µM (SNB-75): 15%
- inhibition at 10 µM (SK-MEL-5): 1%
- inhibition at 10 µM (OVCAR-8): 15%
- inhibition at 10 µM (MDA-MB-435): 0%
- inhibition at 10 µM (SR): 44%
- inhibition at 10 µM (SN12C): 23%
- inhibition at 10 µM (MCF7): 44%
- inhibition at 10 µM (K-562): 0%
- inhibition at 10 µM (HT-29): 0%
- inhibition at 10 µM (SF-539): 12%
- inhibition at 10 µM (NCI-H460): 1%
- inhibition at 10 µM (M14): 0%
- inhibition at 10 µM (NCI-H522): 50%
- inhibition at 10 µM (HS 578T): 71%
- inhibition at 10 µM (HCT-15): 19%
